Results reported in patent US10696675B2, “Imidazopyridopyrimidine derivative compound and use thereof” (HANMI PHARMACEUTICAL CO., LTD., priority 2016, dated 2020).

test system: HUH7 cells; assay: Proliferation inhibitory effect for HUH7 cells (SRB assay); type: cell-based; settings: Homo sapiens, Huh-7, 72 hours, GI50, read-out: IC50 HUH7 Cell Line
Method: Test Example 2: Measuring Inhibitory Effect of FGFR Inhibitor Using Cell Line
The test was carried out for identifying a proliferation inhibitory effect of the compound of the present invention for HUH7 cells. HUH7 cell lines were counted and 5.0×10^3 cells were inoculated per well in a 96 well plate. After the innoculation, the cells were cultured for 24 hours in a 37 □ and 5% carbon dioxide (CO2) incubator. On the next day, the synthesized compounds were each diluted and prepared. The diluted compounds were introduced to the cell lines inoculated the previous day by concentrations, and reacted for 72 hours in a 37 □ and 5% carbon dioxide (CO2) incubator. However, to a positive control to which the compound was not added, 0.1% dimethyl sulfoxide (DMSO) diluted with a medium was introduced. To a negative control plate, a trichloroacetic acid (TCA) solution was introduced, and fixed at 4 □. After reacting for 72 hours, the medium including the compound was removed, a TCA solution was added thereto, and the cells were fixed for 30 minutes to 60 minutes at 4 □. The TCA solution was discarded, the plate was washed off with distilled water and then dried in the air. A 0.4% sulforhodamin B (SRB) solution was added to the plate and dyed for 10 minutes at room temperature. The plate was washed off with tap water including a 1% acetic acid solution, and then dried in the air. A 10 mM Trizma base solution was added to dissolve the solid SRB. Using a microplate reader, optical density (O.D. value) was measured at 540 nm. A GI50 value of each of the compounds was calculated using GraphPad Prism V6.0 Software.

IC50 [nM]	Compound
50 to 500	C=CC(=O)NC1CCCC1Nc1ncc2cc(-c3c(Cl)c(OC)cc(OC)c3Cl)c3nccn3c2n1 (stereo not shown) [Synthesis Example 1, N-(2-((6-(2,6-dichloro-3,5-dimethoxyphenyl)imidazo[1′,2′:1,6]pyrido[2,3-d]pyrimidin-2-yl)amino)cyclopentyl)acrylamide]
> 500	COc1cc(OC)c(Cl)c(-c2cc3cnc(-c4cccc(N5CCOCC5)c4)nc3n3ccnc23)c1Cl [Synthesis Example 80, 4-(3-(6-(2,6-dichloro-3,5-dimethoxyphenyl)imidazo[1′,2′:1,6]pyrido[2,3-d]pyrimidin-2-yl)phenyl)morpholine]
50 to 500	C=CC(=O)NC1CCCCC1Nc1ncc2cc(-c3c(Cl)c(OC)cc(OC)c3Cl)c3nccn3c2n1 (stereo not shown) [compound 2]
50 to 500	C=CC(=O)NC1COCC1Nc1ncc2cc(-c3c(Cl)c(OC)cc(OC)c3Cl)c3nccn3c2n1 (stereo not shown) [compound 3]
50 to 500	C=CC(=O)N[C@H]1CCOC[C@H]1Nc1ncc2cc(-c3c(F)c(OC)cc(OC)c3F)c3nccn3c2n1 [compound 5]
< 50	C=CC(=O)Nc1cccc(Nc2ncc3cc(-c4c(Cl)c(OC)cc(OC)c4Cl)c4nccn4c3n2)c1 [compound 7]
> 500	C=CC(=O)Nc1cccc(C)c1Nc1ncc2cc(-c3cc(OC)cc(OC)c3)c3nccn3c2n1 [compound 8]
50 to 500	C=CC(=O)Nc1ccc(F)cc1Nc1ncc2cc(-c3c(Cl)c(OC)cc(OC)c3Cl)c3nccn3c2n1 [compound 12]
< 50	C=CC(=O)Nc1ccc(N2CCN(CC)CC2)cc1Nc1ncc2cc(-c3c(Cl)c(OC)cc(OC)c3Cl)c3nccn3c2n1 [compound 13]
50 to 500	C=CC(=O)Nc1cc(F)ccc1Nc1ncc2cc(-c3c(Cl)c(OC)cc(OC)c3Cl)c3nccn3c2n1 [compound 14]
50 to 500	C=CC(=O)Nc1cc(Cl)ccc1Nc1ncc2cc(-c3c(Cl)c(OC)cc(OC)c3Cl)c3nccn3c2n1 [compound 15]
50 to 500	C#Cc1ccc(Nc2ncc3cc(-c4c(Cl)c(OC)cc(OC)c4Cl)c4nccn4c3n2)c(NC(=O)C=C)c1 [compound 16]
50 to 500	C=CC(=O)Nc1cc(C#N)ccc1Nc1ncc2cc(-c3c(Cl)c(OC)cc(OC)c3Cl)c3nccn3c2n1 [compound 17]
50 to 500	C=CC(=O)Nc1cc(CC)ccc1Nc1ncc2cc(-c3c(Cl)c(OC)cc(OC)c3Cl)c3nccn3c2n1 [compound 20]
50 to 500	C=CC(=O)Nc1cc(C2CC2)ccc1Nc1ncc2cc(-c3c(Cl)c(OC)cc(OC)c3Cl)c3nccn3c2n1 [compound 21]
50 to 500	C=CC(=O)Nc1cc(C(C)C)ccc1Nc1ncc2cc(-c3c(Cl)c(OC)cc(OC)c3Cl)c3nccn3c2n1 [compound 22]
< 50	C=CC(=O)Nc1cc(C2CCN(C)CC2)ccc1Nc1ncc2cc(-c3c(Cl)c(OC)cc(OC)c3Cl)c3nccn3c2n1 [compound 23]
< 50	C=CC(=O)Nc1cc(OCC)ccc1Nc1ncc2cc(-c3c(Cl)c(OC)cc(OC)c3Cl)c3nccn3c2n1 [compound 27]
< 50	C=CC(=O)Nc1cc(OC(C)C)ccc1Nc1ncc2cc(-c3c(Cl)c(OC)cc(OC)c3Cl)c3nccn3c2n1 [compound 28]

IC50 [nM]	Compound
< 50	C=CC(=O)Nc1cc(OCCN(C)C)ccc1Nc1ncc2cc(-c3c(Cl)c(OC)cc(OC)c3Cl)c3nccn3c2n1 [compound 30]
50 to 500	C=CC(=O)Nc1cc(N2CCCC2)ccc1Nc1ncc2cc(-c3c(Cl)c(OC)cc(OC)c3Cl)c3nccn3c2n1 [compound 33]
50 to 500	COc1cc(OC)c(Cl)c(-c2cc3cnc(Nc4ccc(N5CCOCC5)cc4NC(=O)/C=C/CN(C)C)nc3n3ccnc23)c1Cl [compound 34]
< 50	C=CC(=O)Nc1cc(N2CCC(OC)CC2)ccc1Nc1ncc2cc(-c3c(Cl)c(OC)cc(OC)c3Cl)c3nccn3c2n1 [compound 40]
< 50	C=CC(=O)Nc1cc(N2CCC(OC)C2)ccc1Nc1ncc2cc(-c3c(Cl)c(OC)cc(OC)c3Cl)c3nccn3c2n1 (stereo not shown) [compound 41]
< 50	C=CC(=O)Nc1cc(N2CCN(C(=O)C3CC3)CC2)ccc1Nc1ncc2cc(-c3c(Cl)c(OC)cc(OC)c3Cl)c3nccn3c2n1 [compound 42]
< 50	C=CC(=O)Nc1cc(N2CCN(CC3CC3)CC2)ccc1Nc1ncc2cc(-c3c(Cl)c(OC)cc(OC)c3Cl)c3nccn3c2n1 [compound 43]
< 50	C=CC(=O)Nc1cc(N2CC[C@H](OC)C2)ccc1Nc1ncc2cc(-c3c(Cl)c(OC)cc(OC)c3Cl)c3nccn3c2n1 [compound 44]
< 50	C=CC(=O)Nc1cc(N2CC(O)C2)ccc1Nc1ncc2cc(-c3c(Cl)c(OC)cc(OC)c3Cl)c3nccn3c2n1 [compound 45]
< 50	C=CC(=O)Nc1cc(N2CCN(CCOC)CC2)ccc1Nc1ncc2cc(-c3c(Cl)c(OC)cc(OC)c3Cl)c3nccn3c2n1 [compound 46]
< 50	COc1cc(OC)c(Cl)c(-c2cc3cnc(Nc4ccc(N5CCOCC5)cc4NC(=O)/C=C\Cl)nc3n3ccnc23)c1Cl [compound 47]
< 50	C=CC(=O)Nc1cc(N2CCOC(C)C2)ccc1Nc1ncc2cc(-c3c(Cl)c(OC)cc(OC)c3Cl)c3nccn3c2n1 (stereo not shown) [compound 49]
< 50	C=CC(=O)Nc1cc(N2CCC[C@H]2COC)ccc1Nc1ncc2cc(-c3c(Cl)c(OC)cc(OC)c3Cl)c3nccn3c2n1 [compound 50]
50 to 500	C=CC(=O)Nc1cc(N2CCN(C3CC3)CC2)ccc1Nc1ncc2cc(-c3c(Cl)c(OC)cc(OC)c3Cl)c3nccn3c2n1 [compound 51]
50 to 500	C=CC(=O)Nc1cc(OC2CCN(CC(F)(F)F)CC2)ccc1Nc1ncc2cc(-c3c(Cl)c(OC)cc(OC)c3Cl)c3nccn3c2n1 [compound 55]
< 50	C=CC(=O)Nc1cc(OC2CCN(CC)CC2)ccc1Nc1ncc2cc(-c3c(Cl)c(OC)cc(OC)c3Cl)c3nccn3c2n1 [compound 56]
50 to 500	C=CC(=O)Nc1cc2c(cc1Nc1ncc3cc(-c4c(Cl)c(OC)cc(OC)c4Cl)c4nccn4c3n1)CCC2 [compound 57]
< 50	C=CC(=O)Nc1cc(O[C@@H]2CCOC2)c(F)cc1Nc1ncc2cc(-c3c(Cl)c(OC)cc(OC)c3Cl)c3nccn3c2n1 [compound 59]
50 to 500	C=CC(=O)Nc1cc(O[C@@H]2CCOC2)c(C)cc1Nc1ncc2cc(-c3c(Cl)c(OC)cc(OC)c3Cl)c3nccn3c2n1 [compound 60]

Compound	IC50 [nM]
C=CC(=O)N[C@H]1CCOC[C@H]1Nc1ncc2cc(-c3c(Cl)c(OC)cc(OC)c3Cl)c3nccn3c2n1 [Synthesis Example 4, N-((3S,4S)-3-((6-(2,6-dichloro-3,5-dimethoxyphenyl)imidazo[1′,2′:1,6]pyrido[2,3-d]pyrimidin-2-yl)amino)tetrahydro-2H-pyran-4-yl)acrylamide]	50 to 500
C=CC(=O)Nc1ccccc1Nc1ncc2cc(-c3c(Cl)c(OC)cc(OC)c3Cl)c3nccn3c2n1 [Synthesis Example 6, N-(2-((6-(2,6-dichloro-3,5-dimethoxyphenyl)imidazo[1′,2′:1,6]pyrido[2,3-d]pyrimidin-2-yl)amino)phenyl)acrylamide]	< 50
C=CC(=O)Nc1cc(C)ccc1Nc1ncc2cc(-c3c(Cl)c(OC)cc(OC)c3Cl)c3nccn3c2n1 [compound 19]	< 50
C=CC(=O)Nc1cc(N(C)C)ccc1Nc1ncc2cc(-c3c(Cl)c(OC)cc(OC)c3Cl)c3nccn3c2n1 [compound 24]	< 50
C=CC(=O)Nc1cc(OC)ccc1Nc1ncc2cc(-c3c(Cl)c(OC)cc(OC)c3Cl)c3nccn3c2n1 [compound 26]	< 50
